Reference: ChEMBL document CHEMBL1201862, “PubChem BioAssay data set” (2004)
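Method: 48-hour compound exposure of cells in 96-well plates, five concentrations, linear interpolation of endpoints. Abbreviation: GI50, concentration required for 50% inhibition of growth.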 Activity calls are given as the source filed them. Rule as the data show it: active = GI50 up to about 1.1 µM and inactive = higher.

What was measured:
Test in all cases: NCI anticancer screen, dose series, 48 h
K562 = system: K562
HOP-18 = system: HOP-18
NCI-H460 = system: NCI-H460
NCI-H23 = system: NCI-H23
UACC-257 = system: UACC-257
SN12C = system: SN12C
CAKI-1 = system: CAKI-1
SNB-19 = system: SNB-19
SK-OV-3 = system: SK-OV-3
OVCAR-8 = system: OVCAR-8
SR = system: SR
MDA-N = system: MDA-N
MDA-MB-231 = system: MDA-MB-231
T47D = system: T47D
ACHN = system: ACHN
Hs-578T = system: Hs-578T
DU-145 = system: DU-145
786-0 = system: 786-0
PC-3 = system: PC-3
BT-549 = system: BT-549

SMILES | GI50 (K562) | GI50 (HOP-18) | GI50 (NCI-H460) | GI50 (NCI-H23) | GI50 (UACC-257) | GI50 (SN12C) | GI50 (CAKI-1) | GI50 (SNB-19) | GI50 (SK-OV-3) | GI50 (OVCAR-8) | GI50 (SR) | GI50 (MDA-N) | GI50 (MDA-MB-231) | GI50 (T47D) | GI50 (ACHN) | GI50 (Hs-578T) | GI50 (DU-145) | GI50 (786-0) | GI50 (PC-3) | GI50 (BT-549)
C=CCCCCn1c2ccccc2c2c(C)c3cnccc3c(C)c21 | 3.32 µM (inactive) | 16.1 µM (inactive) | 6.64 µM (inactive) | 4.63 µM (inactive) | 4.5 µM (inactive) | 8.67 µM (inactive) | 8.69 µM (inactive) | 15.3 µM (inactive) | 16.5 µM (inactive) | 3.93 µM (inactive) | – | – | – | – | – | – | – | – | – | –
COc1ccc2c(c1)CCC(CN1CCN(CCOC(c3ccccc3)c3ccccc3)CC1)C2O (configuration not stated) | 6.58 µM (inactive) | – | 16.7 µM (inactive) | 15.1 µM (inactive) | 13 µM (inactive) | 13.5 µM (inactive) | 15.7 µM (inactive) | 18.3 µM (inactive) | 17.9 µM (inactive) | 14.5 µM (inactive) | 16.7 µM (inactive) | 14.3 µM (inactive) | 15.7 µM (inactive) | 16.1 µM (inactive) | 12.6 µM (inactive) | 19.3 µM (inactive) | 20.1 µM (inactive) | 16.6 µM (inactive) | 13.5 µM (inactive) | 14 µM (inactive)
COc1cccc(C2SC(=N)Nc3c2c(C)nn3C(=O)Cc2ccccc2)c1 (configuration not stated) | > 100 µM (inactive) | – | > 100 µM (inactive) | > 100 µM (inactive) | > 100 µM (inactive) | > 100 µM (inactive) | > 100 µM (inactive) | > 100 µM (inactive) | > 100 µM (inactive) | > 100 µM (inactive) | > 100 µM (inactive) | > 100 µM (inactive) | > 100 µM (inactive) | > 100 µM (inactive) | > 100 µM (inactive) | > 100 µM (inactive) | > 100 µM (inactive) | > 100 µM (inactive) | > 100 µM (inactive) | > 100 µM (inactive)
CC(C)(C)c1cc(C(=O)/C=C/c2ccc(C(=O)O)cc2)cc(C(C)(C)C)c1 | 3.21 µM (inactive) | – | 1.94 µM (inactive) | – | 10.1 µM (inactive) | 2.11 µM (inactive) | 3.86 µM (inactive) | 2.36 µM (inactive) | 2.87 µM (inactive) | 2.44 µM (inactive) | 2.4 µM (inactive) | 2.32 µM (inactive) | 3.87 µM (inactive) | 5.56 µM (inactive) | 4 µM (inactive) | 1.42 µM (inactive) | 2.77 µM (inactive) | 4.09 µM (inactive) | 4.48 µM (inactive) | 2.21 µM (inactive)
C1CCC(OCc2nnn3c2CCC3)OC1 (configuration not stated) | > 100 µM (inactive) | < 0.01 µM (active) | > 100 µM (inactive) | > 100 µM (inactive) | > 100 µM (inactive) | > 100 µM (inactive) | – | – | > 100 µM (inactive) | > 100 µM (inactive) | > 100 µM (inactive) | – | – | – | > 100 µM (inactive) | – | – | – | – | –
COc1cc(C2c3cc(OC)c(OC)c(O)c3C(=O)C3CCC(=O)N32)cc(OC)c1OC (configuration not stated) | 29.3 µM (inactive) | – | > 100 µM (inactive) | – | > 100 µM (inactive) | > 100 µM (inactive) | > 100 µM (inactive) | > 100 µM (inactive) | 63 µM (inactive) | 25 µM (inactive) | 89.7 µM (inactive) | 18.2 µM (inactive) | 44.1 µM (inactive) | > 100 µM (inactive) | > 100 µM (inactive) | 56.4 µM (inactive) | > 100 µM (inactive) | > 100 µM (inactive) | > 100 µM (inactive) | 25.2 µM (inactive)
CCOC(=O)C1(Cc2ccc3ccccc3c2)CCCCC(=O)N1 (configuration not stated) | 4.55 µM (inactive) | > 100 µM (inactive) | 25.7 µM (inactive) | 26 µM (inactive) | – | 44.5 µM (inactive) | 43.1 µM (inactive) | 36.5 µM (inactive) | 76 µM (inactive) | 55.5 µM (inactive) | – | – | – | – | 67.5 µM (inactive) | – | – | 38.8 µM (inactive) | – | –
COCCOc1nc(-c2ccccc2)nc2ccccc12 | 35.5 µM (inactive) | – | 19.3 µM (inactive) | 61.8 µM (inactive) | > 100 µM (inactive) | 27.5 µM (inactive) | 34.7 µM (inactive) | 69.2 µM (inactive) | 46.7 µM (inactive) | 42 µM (inactive) | 19.7 µM (inactive) | 32.5 µM (inactive) | 31 µM (inactive) | 27.7 µM (inactive) | 44.1 µM (inactive) | 28.8 µM (inactive) | 54.7 µM (inactive) | – | 34.5 µM (inactive) | 35.9 µM (inactive)
Nc1c(/N=N/c2ccc(-c3ccc(/N=N/c4c(O)ccc5cc(S(=O)(=O)O)cc(S(=O)(=O)O)c45)cc3)cc2)c(S(=O)(=O)O)cc2cc(S(=O)(=O)O)c(/N=N/c3ccccc3)c(O)c12 | > 100 µM (inactive) | > 100 µM (inactive) | > 100 µM (inactive) | > 96.8 µM (inactive) | > 100 µM (inactive) | > 100 µM (inactive) | – | > 100 µM (inactive) | > 100 µM (inactive) | > 100 µM (inactive) | – | – | – | – | – | – | – | – | – | –
